Values joined by “and” are separate entries in the source; they are usually repeats but may differ in a detail not shown here. Equal entries are not always repeated. Where two headings read alike, the source gives them in different places.
How the values were obtained:
Suit2-07 cells = test: Cell proliferation assay, GEM + ATR inhibitor (Incucyte confluence, 72 h); type: cell-based, human; details: Suit2-07; for EC50: Homo sapiens, 72 h; for Ratio: Response to Response vehicle (mean); for Ratio / Response: R1; for Curve bottom / Curve top: plateau of fitted curve, ratio drug/vehicle confluence;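 on all read-outs here: Suit2-07 cells grown in 96-well plates at 37 °C, 5% CO2, raw 72 h confluence taken without normalizing to starting confluence, each experiment done in triplicate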
Description: (§1) Cells were seeded at 5000 cells/well into 96-well flat bottom plates (Eppendorf) and allowed to attach overnight. […] Cells were incubated for 72 h at 37 °C and 5% CO2. Cell confluence readouts at 72 h were either normalized to their initial confluence using the Incucyte software (AsPC-1) or used without prior normalization (all others). […] Each experiment was performed in triplicates, the data was plotted as mean ± standard deviation (s.d.).

PANC-1 cells = test: as above; details: for EC50: Homo sapiens, mean of replicates; for Curve bottom / Curve top: PANC-1, plateau of fitted curve, ratio drug/vehicle confluence
Description: as §1

[1] = GEM+ATRi_dose3, GEM 30 nM + ATRi 30 nM
[2] = experiment ATRi (ATR inhibitor alone)

## Nc1nn2cc(F)cnc2c1C(=O)Nc1cncc(F)c1N1CCC(C(=O)N2CCN(C3COC3)CC2)CC1 [Gartisertib]
Suit2-07 cells; experiment ATRi (ATR inhibitor alone), -log10 of EC50 [M], read-out: pEC50 (converted)
  EC50: 3.39e-07 M
Suit2-07 cells; experiment ATRi (ATR inhibitor alone), mean (one replicate), read-out: EC50 mean
  EC50: 3.39e-07 M
Suit2-07 cells; experiment ATRi (ATR inhibitor alone), replicate R1, read-out: EC50
  EC50: 3.39e-07 M
Suit2-07 cells; GEM+ATRi_dose1, GEM 0 nM + ATRi 10 nM
  Ratio: 1.02
Suit2-07 cells; GEM+ATRi_dose1, GEM 1 nM + ATRi 10 nM
  Ratio: 1.01
Suit2-07 cells; GEM+ATRi_dose1, GEM 3 nM + ATRi 10 nM
  Ratio: 0.93
Suit2-07 cells; GEM+ATRi_dose1, GEM 10 nM + ATRi 10 nM
  Ratio: 0.23
Suit2-07 cells; GEM+ATRi_dose1, GEM 30 nM + ATRi 10 nM
  Ratio: 0.15
Suit2-07 cells; GEM+ATRi_dose1, GEM 100 nM + ATRi 10 nM
  Ratio: 0.15
Suit2-07 cells; GEM+ATRi_dose1, GEM 300 nM + ATRi 10 nM
  Ratio: 0.12
Suit2-07 cells; GEM+ATRi_dose1, GEM 1000 nM + ATRi 10 nM
  Ratio: 0.11
Suit2-07 cells; GEM+ATRi_dose1, GEM 3000 nM + ATRi 10 nM
  Ratio: 0.09
Suit2-07 cells; GEM+ATRi_dose2, GEM 0 nM + ATRi 3 nM
  Ratio: 0.98
Suit2-07 cells; GEM+ATRi_dose2, GEM 1 nM + ATRi 3 nM
  Ratio: 0.98
Suit2-07 cells; GEM+ATRi_dose2, GEM 3 nM + ATRi 3 nM
  Ratio: 0.26
Suit2-07 cells; GEM+ATRi_dose2, GEM 10 nM + ATRi 3 nM
  Ratio: 0.16
Suit2-07 cells; GEM+ATRi_dose2, GEM 30 nM + ATRi 3 nM
  Ratio: 0.13
Suit2-07 cells; GEM+ATRi_dose2, GEM 100 nM + ATRi 3 nM
  Ratio: 0.13
Suit2-07 cells; GEM+ATRi_dose2, GEM 300 nM + ATRi 3 nM
  Ratio: 0.11
Suit2-07 cells; GEM+ATRi_dose2, GEM 1000 nM + ATRi 3 nM
  Ratio: 0.11
Suit2-07 cells; GEM+ATRi_dose2, GEM 3000 nM + ATRi 3 nM
  Ratio: 0.09
Suit2-07 cells; GEM+ATRi_dose3, GEM 0 nM + ATRi 30 nM
  Ratio: 0.97
Suit2-07 cells; GEM+ATRi_dose3, GEM 1 nM + ATRi 30 nM
  Ratio: 0.93
Suit2-07 cells; GEM+ATRi_dose3, GEM 3 nM + ATRi 30 nM
  Ratio: 0.37
Suit2-07 cells; GEM+ATRi_dose3, GEM 10 nM + ATRi 30 nM
  Ratio: 0.18
Suit2-07 cells; [1]
  Ratio: 0.14
  Response: 13.78
Suit2-07 cells; GEM+ATRi_dose3, GEM 100 nM + ATRi 30 nM
  Ratio: 0.13
Suit2-07 cells; GEM+ATRi_dose3, GEM 300 nM + ATRi 30 nM
  Ratio: 0.12
Suit2-07 cells; GEM+ATRi_dose3, GEM 1000 nM + ATRi 30 nM
  Ratio: 0.13
Suit2-07 cells; GEM+ATRi_dose3, GEM 3000 nM + ATRi 30 nM
  Ratio: 0.08
Suit2-07 cells; experiment ATRi, ATRi 3 nM, GEM 0 nM
  Ratio: 1.02
Suit2-07 cells; experiment ATRi, ATRi 10 nM, GEM 0 nM
  Ratio: 1.01
Suit2-07 cells; experiment ATRi, ATRi 30 nM, GEM 0 nM
  Ratio: 0.98
Suit2-07 cells; experiment ATRi, ATRi 100 nM, GEM 0 nM
  Ratio: 0.96
Suit2-07 cells; experiment ATRi, ATRi 300 nM, GEM 0 nM
  Ratio: 0.63
Suit2-07 cells; experiment ATRi, ATRi 1000 nM, GEM 0 nM
  Ratio: 0.22
Suit2-07 cells; experiment ATRi, ATRi 3000 nM, GEM 0 nM
  Ratio: 0.19
Suit2-07 cells; experiment ATRi, ATRi 10000 nM, GEM 0 nM
  Ratio: 0.12
Suit2-07 cells; GEM+ATRi_dose1, GEM 0 nM + ATRi 10 nM, in % (unit assumed)
  Response: 99.22
Suit2-07 cells; GEM+ATRi_dose1, GEM 1 nM + ATRi 10 nM, in % (unit assumed)
  Response: 98.36
Suit2-07 cells; GEM+ATRi_dose1, GEM 3 nM + ATRi 10 nM, in % (unit assumed)
  Response: 90.74
Suit2-07 cells; GEM+ATRi_dose1, GEM 10 nM + ATRi 10 nM, in % (unit assumed)
  Response: 21.98
Suit2-07 cells; GEM+ATRi_dose1, GEM 30 nM + ATRi 10 nM, in % (unit assumed)
  Response: 14.67
Suit2-07 cells; GEM+ATRi_dose1, GEM 100 nM + ATRi 10 nM, in % (unit assumed)
  Response: 14.71
Suit2-07 cells; GEM+ATRi_dose1, GEM 300 nM + ATRi 10 nM, in % (unit assumed)
  Response: 11.45
Suit2-07 cells; GEM+ATRi_dose1, GEM 1000 nM + ATRi 10 nM, in % (unit assumed)
  Response: 10.53
Suit2-07 cells; GEM+ATRi_dose1, GEM 3000 nM + ATRi 10 nM, in % (unit assumed)
  Response: 8.70
Suit2-07 cells; GEM+ATRi_dose2, GEM 0 nM + ATRi 3 nM, in % (unit assumed)
  Response: 95.38
Suit2-07 cells; GEM+ATRi_dose2, GEM 1 nM + ATRi 3 nM, in % (unit assumed)
  Response: 96.21
Suit2-07 cells; GEM+ATRi_dose2, GEM 3 nM + ATRi 3 nM, in % (unit assumed)
  Response: 25.36
Suit2-07 cells; GEM+ATRi_dose2, GEM 10 nM + ATRi 3 nM, in % (unit assumed)
  Response: 15.98
Suit2-07 cells; GEM+ATRi_dose2, GEM 30 nM + ATRi 3 nM, in % (unit assumed)
  Response: 13.06
Suit2-07 cells; GEM+ATRi_dose2, GEM 100 nM + ATRi 3 nM, in % (unit assumed)
  Response: 13.09
Suit2-07 cells; GEM+ATRi_dose2, GEM 300 nM + ATRi 3 nM, in % (unit assumed)
  Response: 10.34
Suit2-07 cells; GEM+ATRi_dose2, GEM 1000 nM + ATRi 3 nM, in % (unit assumed)
  Response: 10.34
Suit2-07 cells; GEM+ATRi_dose2, GEM 3000 nM + ATRi 3 nM, in % (unit assumed)
  Response: 9.00
Suit2-07 cells; GEM+ATRi_dose3, GEM 0 nM + ATRi 30 nM, in % (unit assumed)
  Response: 94.90
Suit2-07 cells; GEM+ATRi_dose3, GEM 1 nM + ATRi 30 nM, in % (unit assumed)
  Response: 91.25
Suit2-07 cells; GEM+ATRi_dose3, GEM 3 nM + ATRi 30 nM, in % (unit assumed)
  Response: 36.47
Suit2-07 cells; GEM+ATRi_dose3, GEM 10 nM + ATRi 30 nM, in % (unit assumed)
  Response: 17.41
Suit2-07 cells; GEM+ATRi_dose3, GEM 100 nM + ATRi 30 nM, in % (unit assumed)
  Response: 12.30
Suit2-07 cells; GEM+ATRi_dose3, GEM 300 nM + ATRi 30 nM, in % (unit assumed)
  Response: 12.12
Suit2-07 cells; GEM+ATRi_dose3, GEM 1000 nM + ATRi 30 nM, in % (unit assumed)
  Response: 12.34
Suit2-07 cells; GEM+ATRi_dose3, GEM 3000 nM + ATRi 30 nM, in % (unit assumed)
  Response: 7.88
Suit2-07 cells; [2]
  Curve bottom: 1.01
  Curve top: 0.15
Suit2-07 cells; experiment ATRi, ATRi 3 nM, GEM 0 nM, in % (unit assumed)
  Response: 99.33
Suit2-07 cells; experiment ATRi, ATRi 10 nM, GEM 0 nM, in % (unit assumed)
  Response: 98.82
Suit2-07 cells; experiment ATRi, ATRi 30 nM, GEM 0 nM, in % (unit assumed)
  Response: 95.35
Suit2-07 cells; experiment ATRi, ATRi 100 nM, GEM 0 nM, in % (unit assumed)
  Response: 93.53
Suit2-07 cells; experiment ATRi, ATRi 300 nM, GEM 0 nM, in % (unit assumed)
  Response: 61.81
Suit2-07 cells; experiment ATRi, ATRi 1000 nM, GEM 0 nM, in % (unit assumed)
  Response: 21.20
Suit2-07 cells; experiment ATRi, ATRi 3000 nM, GEM 0 nM, in % (unit assumed)
  Response: 18.17
Suit2-07 cells; experiment ATRi, ATRi 10000 nM, GEM 0 nM, in % (unit assumed)
  Response: 11.75
Suit2-07 cells; experiment GEM+ATRi_dose1
  Curve bottom: 1.01
  Curve top: 0.12
Suit2-07 cells; experiment GEM+ATRi_dose2
  Curve bottom: 0.98
  Curve top: 0.12
Suit2-07 cells; experiment GEM+ATRi_dose3
  Curve bottom: 0.98
  Curve top: 0.13
PANC-1 cells; PANC-1, 72 h, read-out: EC50 mean [nM], PANC-1, experiment ATRi (ATR inhibitor alone)
  EC50: 7880 nM
PANC-1 cells; PANC-1, read-out: EC50 mean [nM], PANC-1, experiment ATRi (ATR inhibitor alone)
  EC50: 7880 nM
PANC-1 cells; PANC-1, read-out: EC50 mean [nM], PANC-1, experiment GEM+ATRi_dose1
  EC50: 4.13 nM
PANC-1 cells; PANC-1, read-out: EC50 mean [nM], PANC-1, experiment GEM+ATRi_dose2
  EC50: 8.99 nM
PANC-1 cells; PANC-1, read-out: EC50 mean [nM], PANC-1, experiment GEM+ATRi_dose3
  EC50: 6.69 nM
PANC-1 cells; [2]
  Curve bottom: 1.03 and 0.99 and 0.93
PANC-1 cells; experiment GEM+ATRi_dose1
  Curve top: 0.48 and 0.43 and 0.49
PANC-1 cells; experiment GEM+ATRi_dose2
  Curve top: 0.47 and 0.43 and 0.52
PANC-1 cells; experiment GEM+ATRi_dose3
  Curve bottom: 0.95 and 0.86 and 1.00
  Curve top: 0.47 and 0.45 and 0.50
